Target: H1047R PIK3CA enzyme (Homo sapiens, UniProt P42336, H1047R)
Assay: ADP-Glo Biochemical PIK3CA Kinase Assay

Sequence of H1047R PIK3CA enzyme (P42336 whole entry H1047R): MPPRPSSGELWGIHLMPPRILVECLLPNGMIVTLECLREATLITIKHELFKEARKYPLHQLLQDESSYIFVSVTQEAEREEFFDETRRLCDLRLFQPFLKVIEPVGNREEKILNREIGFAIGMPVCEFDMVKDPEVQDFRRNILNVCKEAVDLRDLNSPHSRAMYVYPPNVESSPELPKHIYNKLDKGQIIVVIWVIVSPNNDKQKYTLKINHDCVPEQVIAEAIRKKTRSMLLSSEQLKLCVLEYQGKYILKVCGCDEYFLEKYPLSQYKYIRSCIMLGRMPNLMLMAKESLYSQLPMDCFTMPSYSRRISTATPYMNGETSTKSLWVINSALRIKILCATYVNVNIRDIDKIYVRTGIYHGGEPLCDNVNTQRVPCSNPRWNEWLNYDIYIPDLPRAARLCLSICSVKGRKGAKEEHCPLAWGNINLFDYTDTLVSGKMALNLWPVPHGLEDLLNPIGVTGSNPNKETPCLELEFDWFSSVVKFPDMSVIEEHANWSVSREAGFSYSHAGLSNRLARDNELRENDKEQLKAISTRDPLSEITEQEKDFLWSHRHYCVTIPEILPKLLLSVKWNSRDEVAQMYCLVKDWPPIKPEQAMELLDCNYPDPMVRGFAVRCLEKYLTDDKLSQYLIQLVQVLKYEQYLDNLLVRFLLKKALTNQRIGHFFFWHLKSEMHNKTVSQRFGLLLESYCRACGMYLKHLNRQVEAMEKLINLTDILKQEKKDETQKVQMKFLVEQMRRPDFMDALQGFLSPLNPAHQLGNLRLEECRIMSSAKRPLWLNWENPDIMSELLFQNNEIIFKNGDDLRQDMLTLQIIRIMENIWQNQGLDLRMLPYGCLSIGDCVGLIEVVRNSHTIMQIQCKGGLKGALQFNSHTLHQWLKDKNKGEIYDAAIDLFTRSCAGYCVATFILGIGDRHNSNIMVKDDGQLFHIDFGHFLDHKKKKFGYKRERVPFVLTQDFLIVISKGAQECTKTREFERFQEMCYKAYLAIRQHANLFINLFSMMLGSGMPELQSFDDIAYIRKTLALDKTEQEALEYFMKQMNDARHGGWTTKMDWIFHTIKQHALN
Sequence of H1047R PIK3CA enzyme (P27986 whole entry partner): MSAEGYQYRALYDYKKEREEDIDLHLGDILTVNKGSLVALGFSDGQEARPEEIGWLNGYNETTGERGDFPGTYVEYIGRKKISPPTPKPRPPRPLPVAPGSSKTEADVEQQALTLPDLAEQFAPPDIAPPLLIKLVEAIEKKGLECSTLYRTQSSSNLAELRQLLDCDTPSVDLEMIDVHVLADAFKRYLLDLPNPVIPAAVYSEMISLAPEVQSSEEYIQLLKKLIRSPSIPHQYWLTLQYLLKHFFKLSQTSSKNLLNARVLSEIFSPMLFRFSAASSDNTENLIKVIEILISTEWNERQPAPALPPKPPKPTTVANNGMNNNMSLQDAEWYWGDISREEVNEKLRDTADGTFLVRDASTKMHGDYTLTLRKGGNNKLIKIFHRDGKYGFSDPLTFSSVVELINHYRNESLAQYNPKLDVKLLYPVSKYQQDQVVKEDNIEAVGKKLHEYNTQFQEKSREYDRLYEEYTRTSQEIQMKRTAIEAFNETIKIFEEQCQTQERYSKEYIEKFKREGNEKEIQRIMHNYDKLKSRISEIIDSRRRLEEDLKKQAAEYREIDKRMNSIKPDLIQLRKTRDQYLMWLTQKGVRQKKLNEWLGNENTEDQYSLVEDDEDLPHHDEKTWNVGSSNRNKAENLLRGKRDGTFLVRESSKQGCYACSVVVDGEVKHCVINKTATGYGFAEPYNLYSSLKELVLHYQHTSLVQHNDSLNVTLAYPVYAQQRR

Row | SMILES | IC50 [nM]
1 | CC(C)(O)c1cc(NC(=O)c2cc(F)cc(C(F)(F)F)c2)c2c(c1)C(=O)N[C@@H]2c1cc(F)ccc1Cl [Compound I-190] | 1000 to 10000
2 | CC(C)(O)c1cc(NC(=O)c2nsc3ccccc23)c2c(c1)C(=O)N[C@@H]2c1cc(F)ccc1Cl [Compound I-191] | 500 to 1000
3 | O=C(Nc1cc(-c2cn[nH]c2)nc2c1[C@@H](c1cc(F)ccc1Cl)NC2=O)c1cc(F)cc(C(F)(F)F)c1 [Compound I-193] | 1000 to 10000
4 | O=C(Nc1cc(-c2cn[nH]c2)nc2c1[C@H](c1cc(F)ccc1Cl)NC2=O)c1cc(F)cc(C(F)(F)F)c1 [Compound I-194] | ≤ 100
5 | O=C(Nc1cc(-c2cn[nH]c2)nc2c1[C@@H](c1cc(F)ccc1Cl)NC2=O)c1cc(F)cc(Cl)c1 [Compound I-195] | 1000 to 10000
6 | O=C(Nc1cc(-c2cn[nH]c2)nc2c1[C@H](c1cc(F)ccc1Cl)NC2=O)c1cc(F)cc(Cl)c1 [Compound I-196] | ≤ 100
7 | N#Cc1ccccc1C1NC(=O)c2cccc(NC(=O)c3nsc4ccccc34)c21 (stereo not shown) [Compound I-197] | 1000 to 10000
8 | COc1cccc2c(C(=O)Nc3cccc4c3C(c3ccccc3C)NC4=O)csc12 (stereo not shown) [Compound I-198] | 10000 to 100000
9 | Cc1ccccc1C1NC(=O)c2nccc(NC(=O)N3CCc4ncccc43)c21 (stereo not shown) [Compound I-199] | 10000 to 100000
10 | Cc1ccccc1C1NC(=O)c2cccc(NC(=O)c3noc4ccc(Cl)cc34)c21 (stereo not shown) [Compound I-200] | 1000 to 10000
11 | Cc1ccccc1C1NCc2cccc(NC(=O)c3nsc4ccccc34)c21 (stereo not shown) [Compound I-201] | 1000 to 10000
12 | Cc1ccccc1C1NC(=O)c2c(Br)ccc(NC(=O)c3nsc4ccccc34)c21 (stereo not shown) [Compound I-203] | ≤ 100
13 | O=C1NC(C2CCCCC2)c2c(NC(=O)c3nsc4ccccc34)cccc21 (stereo not shown) [Compound I-204, N-(3-Cyclohexyl-1-oxoisoindolin-4-yl)benzo[d]isothiazole-3-carboxamide] | 100 to 500
14 | C=Cc1ccc(NC(=O)c2nsc3ccccc23)c2c1C(=O)NC2c1ccccc1C (stereo not shown) [Compound I-205] | 100 to 500
15 | O=C(Nc1cc(Br)cc2c1C(c1cc(F)ccc1C(F)F)NC2=O)c1cc(F)cc(C(F)(F)F)c1 (stereo not shown) [Compound I-206] | ≤ 100
16 | CC(=O)NCc1cc(NC(=O)c2cc(F)cc(C(F)(F)F)c2)c2c(c1)C(=O)NC2c1cc(F)ccc1Cl (stereo not shown) [Compound I-207] | 100 to 500
17 | O=C(Nc1ccnc2c1C(c1ccccc1Cl)NC2=O)c1cc(F)cc(C(F)(F)F)c1 (stereo not shown) [Compound I-208] | 500 to 1000
18 | O=C1NC(c2ccccc2Cl)c2c(NC(=O)c3coc4c(F)cc(F)cc34)ccnc21 (stereo not shown) [Compound I-209] | 500 to 1000
19 | O=C1NC(c2cccc(F)c2F)c2c(NC(=O)c3coc4c(F)cc(F)cc34)ccnc21 (stereo not shown) [Compound I-210] | 1000 to 10000
20 | CNC(=O)c1cc(NC(=O)c2cc(F)cc(C(F)(F)F)c2)c2c(c1)C(=O)N[C@@H]2c1ccccc1C [Compound I-211] | 10000 to 100000
21 | CNC(=O)c1cc(NC(=O)c2cc(F)cc(C(F)(F)F)c2)c2c(c1)C(=O)N[C@H]2c1ccccc1C [Compound I-212] | ≤ 100
22 | CC(C)(O)c1cc(NC(=O)c2cc(F)cc(Cl)c2)c2c(c1)C(=O)NC2c1cc(F)ccc1Cl (stereo not shown) [Compound I-214] | ≤ 100
23 | CC(=O)c1cc(NC(=O)c2cc(F)cc(Cl)c2)c2c(c1)C(=O)NC2c1cc(F)ccc1Cl (stereo not shown) [Compound I-215] | 100 to 500

Row | SMILES | IC50 [nM]
24 | O=C(Nc1cc(Br)cc2c1C(c1cc(F)ccc1Cl)NC2=O)c1cc(F)cc(Cl)c1 (stereo not shown) [Compound I-216] | ≤ 100
25 | Nc1cc(NC(=O)c2cc(F)cc(C(F)(F)F)c2)c2c(c1)C(=O)N[C@@H]2c1cc(F)ccc1Cl [Compound I-217] | 1000 to 10000
26 | Cc1ccccc1C1NC(=O)c2c(C(=O)N3CC(C#N)C3)ccc(NC(=O)c3nsc4ccccc34)c21 (stereo not shown) [Compound I-219] | 500 to 1000
27 | O=C1NC(c2ccccc2C(F)(F)F)c2c(NC(=O)c3nsc4ccccc34)cccc21 (stereo not shown) [Compound I-221] | 10000 to 100000
28 | COC(=O)c1cc(NC(=O)c2nsc3ccccc23)c2c(n1)C(=O)NC2c1ccccc1Cl (stereo not shown) [Compound I-222, Methyl 4-(1,2-benzothiazole-3-amido)-5-(2-chlorophenyl)-7-oxo-5H,6H,7H-pyrrolo[3,4-b]pyridine-2-carboxylate] | 100 to 500
29 | Cc1ccccc1C1NC(=O)c2c(CNC(=O)C(F)(F)F)ccc(NC(=O)c3csc4ccccc34)c21 (stereo not shown) [Compound I-223] | 100 to 500
30 | Cc1ccccc1C1NC(=O)c2c(CO)ccc(NC(=O)c3csc4ccccc34)c21 (stereo not shown) [Compound I-224] | ≤ 100
31 | Cc1ccccc1C1NC(=O)c2c(C(=O)N3CC(S(C)(=O)=O)C3)ccc(NC(=O)c3nsc4ccccc34)c21 (stereo not shown) [Compound I-225] | 100 to 500
32 | Cc1ccccc1C1NC(=O)c2cccc(NC(=O)C34CCC(C3)c3ccccc34)c21 (stereo not shown) [Compound I-226, N-(1-Oxo-3-(o-tolyl)isoindolin-4-yl)-1,2,3,4-tetrahydro-1,4-methanonaphthalene-1-carboxamide] | 1000 to 10000
33 | Cc1ccccc1[C@@H]1NC(=O)c2nccc(NC(=O)N3CCc4ccccc43)c21 [Compound I-227] | 100 to 500
34 | Cc1ccccc1[C@H]1NC(=O)c2nccc(NC(=O)N3CCc4ccccc43)c21 [Compound I-228] | 10000 to 100000
35 | Cc1ccccc1[C@@H]1NC(=O)c2nccc(NC(=O)N3CCc4c(F)cc(F)cc43)c21 [Compound I-229] | 500 to 1000
36 | Cc1ccccc1[C@H]1NC(=O)c2nccc(NC(=O)N3CCc4c(F)cc(F)cc43)c21 [Compound I-230] | 10000 to 100000
37 | CS(=O)(=O)Cc1cc(NC(=O)c2cc(F)cc(Cl)c2)c2c(c1)C(=O)NC2c1cc(F)ccc1Cl (stereo not shown) [Compound I-231] | ≤ 100
38 | Cc1ccccc1C1NC(=O)c2c(Cl)ncc(NC(=O)c3cc(F)cc(C(F)(F)F)c3)c21 (stereo not shown) [Compound I-232, N-[4-Chloro-1-(2-methylphenyl)-3-oxo-1H,2H,3H-pyrrolo[3,4-c]pyridin-7-yl]-3-fluoro-5-(trifluoromethyl)benzamide] | 100 to 500
39 | Cc1ccccc1C1NC(=O)c2cncc(NC(=O)c3cc(F)cc(C(F)(F)F)c3)c21 (stereo not shown) [Compound I-233] | 100 to 500
40 | O=C(Nc1ccnc2c1C(c1ccccc1Cl)NC2=O)c1cc(F)cc(OC(F)(F)F)c1 (stereo not shown) [Compound I-234] | 1000 to 10000
41 | N#Cc1cc(F)cc(C(=O)Nc2ccnc3c2C(c2ccccc2Cl)NC3=O)c1 (stereo not shown) [Compound I-235] | 10000 to 100000
42 | Cc1ccccc1C1NC(=O)c2c(C#N)ncc(NC(=O)c3cc(F)cc(C(F)(F)F)c3)c21 (stereo not shown) [Compound I-236] | 1000 to 10000
43 | N#Cc1cc(NC(=O)c2cc(F)cc(C(F)(F)F)c2)c2c(c1)C(=O)NC2c1cc(F)ccc1C(F)F (stereo not shown) [Compound I-237] | ≤ 100
44 | CC(=O)c1cc(NC(=O)c2cc(F)cc(C(F)(F)F)c2)c2c(c1)C(=O)NC2c1cc(F)ccc1C(F)F (stereo not shown) [Compound I-238] | ≤ 100
45 | CC(C)(O)c1cc(NC(=O)c2cc(F)cc(C(F)(F)F)c2)c2c(c1)C(=O)NC2c1cc(F)ccc1C(F)F (stereo not shown) [Compound I-239] | ≤ 100
46 | O=C(Nc1ccnc2c1C(c1ccccc1Cl)NC2=O)c1ccnc2c1CCC2 (stereo not shown) [Compound I-240] | 10000 to 100000

Row | SMILES | IC50 [nM]
47 | Cn1ncc(C2NC(=O)c3cccc(NC(=O)c4nsc5ccccc45)c32)c1C(F)F (stereo not shown) [Compound I-241] | 10000 to 100000
48 | CC(C)(O)c1cc(NC(=O)c2cc(F)cc(C(F)(F)F)c2)c2c(n1)C(=O)NC2c1cc(F)ccc1Cl (stereo not shown) [Compound I-242] | 100 to 500
49 | Cc1ccccc1C1NC(=O)c2c(N(C)C)ncc(NC(=O)c3cc(F)cc(C(F)(F)F)c3)c21 (stereo not shown) [Compound I-243] | 500 to 1000
50 | Cc1ccccc1C1NC(=O)c2c(C)ncc(NC(=O)c3cc(F)cc(C(F)(F)F)c3)c21 (stereo not shown) [Compound I-244, 3-Fluoro-N-(4-methyl-3-oxo-1-(o-tolyl)-2,3-dihydro-1H-pyrrolo[3,4-c]pyridin-7-yl)-5-(trifluoromethyl)benzamide] | 100 to 500
51 | O=C(Nc1ccc(F)cc1F)Nc1ccnc2c1C(c1ccccc1Cl)NC2=O (stereo not shown) [Compound I-245] | 1000 to 10000
52 | Cc1ccccc1[C@@H]1NC(=O)c2nccc(NC(=O)N3CCc4ccc(F)cc43)c21 [Compound I-246] | 100 to 500
53 | Cc1ccccc1[C@H]1NC(=O)c2nccc(NC(=O)N3CCc4ccc(F)cc43)c21 [Compound I-247] | 10000 to 100000
54 | Cc1ccccc1C1NC(=O)c2nccc(NC(=O)N3CCc4cnccc43)c21 (stereo not shown) [Compound I-248] | 10000 to 100000
55 | Cc1ccccc1C1NC(=O)c2nccc(NC(=O)N3CC(C)c4ccccc43)c21 (stereo not shown) [Compound I-249] | 100 to 500
56 | CC(C)(O)c1cc(NC(=O)c2nsc3ccccc23)c2c(n1)C(=O)NC2c1ccccc1Cl (stereo not shown) [Compound I-250] | ≤ 100
57 | Cc1ccccc1C1NC(=O)c2nccc(NC(=O)N3CCc4ccncc43)c21 (stereo not shown) [Compound I-251] | 10000 to 100000
58 | Cc1ccccc1-n1[nH]c(=O)c2cccc(NC(=O)c3coc4c(F)cc(Cl)cc34)c21 [Compound I-252] | 100 to 500
59 | Cc1ccccc1C1NC(=O)c2c(N3CCOCC3)ncc(NC(=O)c3cc(F)cc(C(F)(F)F)c3)c21 (stereo not shown) [Compound I-253] | 1000 to 10000
60 | Cc1ccccc1C1NC(=O)c2c(-c3cnn(C)c3)ncc(NC(=O)c3cc(F)cc(C(F)(F)F)c3)c21 (stereo not shown) [Compound I-254] | 100 to 500
61 | O=C(Nc1cnc(N2CCOCC2)c2c1C(c1cc(F)ccc1Cl)NC2=O)c1cc(F)cc(C(F)(F)F)c1 (stereo not shown) [Compound I-255] | 1000 to 10000
62 | Cc1ccccc1C1NC(=O)c2cccc(NC(=O)C3CCc4ccccc43)c21 (stereo not shown) [Compound I-256] | 1000 to 10000
63 | O=C1NC(c2cc(F)ccc2Cl)c2c(NC(=O)N3CCc4ccccc43)ccnc21 (stereo not shown) [Compound I-257] | 500 to 1000
64 | Cc1ccccc1C1NC(=O)c2cccc(NC(=O)c3ncn4ccc(Cl)cc34)c21 (stereo not shown) [Compound I-258, 7-chloro-N-[3-(2-methylphenyl)-1-oxo-2,3-dihydro-1H-isoindol-4-yl]imidazo[1,5-a]pyridine-1-carboxamide] | 1000 to 10000
65 | O=C(Nc1cccc2c1C(C1CC1)NC2=O)c1cc(F)cc(C(F)(F)F)c1 (stereo not shown) [Compound I-259] | 10000 to 100000
66 | Cc1ccccc1C1NC(=O)c2cc(CN)cc(NC(=O)c3cc(F)cc(C(F)(F)F)c3)c21 (stereo not shown) [Compound I-260] | 100 to 500
67 | Cc1ccccc1C1NC(=O)c2c(C(=O)NCC(N)=O)ccc(NC(=O)c3nsc4ccccc34)c21 (stereo not shown) [Compound I-261] | ≤ 100
